Laboratory results taken from patent US20100022483A1, “Substituted Tetracycline Compounds” (Paratek Pharmaceuticals, Inc., priority 2008, published 2010).
In brackets after ≈: the same amount, converted by molar mass. Where two headings read alike, the source gives them in different places.

Columns and labels:
in vitro = type: cell-based; conditions: Chinese hamster, Cytotox. CHO-K1
gram positive bacteria = test: In vitro anti-bacterial activity assay (broth dilution MIC), gram positive bacteria; type: cell-based, S. aureus; conditions: 18 h
Method in brief: (§1)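 Broth dilution MIC following CLSI M7-A2: compounds serially diluted, log-phase test strains added to final ~5×10^5 CFU/ml, incubated ~18 hours at 35° C in ambient air. Plates read on microplate reader or visually; MIC is lowest concentration inhibiting growth.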

gram negative bacteria = test: In vitro anti-bacterial activity assay (broth dilution MIC), gram negative bacteria; type: cell-based, E. coli
Method in brief: as §1

[1] = Mammalian cytotoxicity assay (resazurin), COS-1 cells; type: cell-based; conditions: African green monkey, read-out: Cytotox. COS-1
Method in brief: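 Cells seeded overnight at 37° C., 5% CO2, then exposed to serial compound dilutions for 24 hours. Medium replaced with resazurin (0.042 mg/ml in PBS with Ca and Mg) for 2 hours plus 30 minutes dark at room temperature; fluorescence read at ex 535/em 590 nm, IC50 taken as 50% growth inhibition.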

3T3 fibroblast cells = test: In vitro phototoxicity assay (neutral red; UV light-treated vs dark control plates); type: cell-based; conditions: for Photo Toxicity UV Tox50: UV light 50 minutes; for Photo Toxicity Dark Tox50: dark control plate
Method in brief: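 Neutral red viability readout (A535 after EtOH/acetic acid extraction) compares paired plates: one exposed 50 min to UV at 1.6–1.8 mW/cm^2, one held in darkness, both dosed with compound in HBSS and recovered overnight. 3T3 fibroblast cells used; phototoxicity taken as the difference.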

[2] = Staphylococcus aureus, S. aureus MRSA5, read-out: Median MIC's G+ S. aureus MRSA5
[3] = Staphylococcus aureus, S. aureus RN450, read-out: Median MIC's G+ S. aureus RN450
[4] = Streptococcus pneumoniae, S. pneumoniae 157E-Strep, read-out: Median MIC's G+ S. pneumoniae 157E-Strep
[5] = Escherichia coli, 18 h, E. coli D1 209, read-out: Median MIC's G− E. coli D1 209
[6] = Escherichia coli, 18 h, E. coli MG 1655, read-out: Median MIC's G− E. coli MG 1655
[7] = Escherichia coli, ATCC25922, 18 h, E. coli ATCC 25922, read-out: Median MIC's G− E. coli ATCC 25922
[8] = Pseudomonas aeruginosa, 18 h, P. aeruginosa K201 PAO6609, read-out: Median MIC's G− P. aeruginosa K201 PAO6609

| Compound | IC50 at 24 h (in vitro) [µM] | MIC (gram positive bacteria; [2]) [µg/mL] | MIC (gram positive bacteria; [3]) [µg/mL] | MIC (gram positive bacteria; [4]) [µg/mL] | MIC (gram negative bacteria; [5]) [µg/mL] | MIC (gram negative bacteria; [6]) [µg/mL] | MIC (gram negative bacteria; [7]) [µg/mL] | MIC (gram negative bacteria; [8]) [µg/mL] | IC50 at 24 h [1] [µM] | Photo Toxicity UV Tox50 (3T3 fibroblast cells) [µM] | Photo Toxicity Dark Tox50 (3T3 fibroblast cells) [µM] |
| --- | --- | --- | --- | --- | --- | --- | --- | --- | --- | --- | --- |
| CN(C)Cc1ccc(-c2ccc(O)c3c2C[C@H]2C[C@H]4[C@H](N(C)C)C(O)=C(C(N)=O)C(=O)[C@@]4(O)C(O)=C2C3=O)[nH]1 [BK] | > 148 | 4 (≈ 7.45 µM) | 0.25 (≈ 0.466 µM) | 0.13 (≈ 0.242 µM) | 64 (≈ 119 µM) | 4 (≈ 7.45 µM) | 4 (≈ 7.45 µM) | 32 (≈ 59.6 µM) | > 148 | >147.66 | >147.66 |
| CCN(CC)CCCC(C)NC(=O)c1ccc(O)c2c1C[C@H]1C[C@H]3[C@H](N(C)C)C(O)=C(C(N)=O)C(=O)[C@@]3(O)C(O)=C1C2=O (stereo partly drawn) [AI] | > 109 | 64 (≈ 107 µM) | 64 (≈ 107 µM) | 64 (≈ 107 µM) | 64 (≈ 107 µM) | 64 (≈ 107 µM) | 64 (≈ 107 µM) | 64 (≈ 107 µM) | > 109 | >108.86 | >108.86 |
| COc1ccc(-c2ccc(O)c3c2C[C@H]2C[C@H]4[C@H](N(C)C)C(O)=C(C(N)=O)C(=O)[C@@]4(O)C(O)=C2C3=O)cc1CNCC(N)=O [BE] | > 10.8 | 32 (≈ 52.8 µM) | 1 (≈ 1.65 µM) | 0.13 (≈ 0.214 µM) | 64 (≈ 106 µM) | 16 (≈ 26.4 µM) | 64 (≈ 106 µM) | 64 (≈ 106 µM) | > 10.8 | >107.82 | >107.82 |
| C=CCNCC(=O)c1ccc(O)c2c1C[C@H]1C[C@H]3[C@H](N(C)C)C(O)=C(C(N)=O)C(=O)[C@@]3(O)C(O)=C1C2=O [BV] | 27.6 | 32 (≈ 62.6 µM) | 4 (≈ 7.82 µM) | 1 (≈ 1.95 µM) | 64 (≈ 125 µM) | 16 (≈ 31.3 µM) | 32 (≈ 62.6 µM) | 64 (≈ 125 µM) | > 122 | >121.69 | >121.69 |
| CCN(CC)CCNC(=O)c1cccc(-c2ccc(O)c3c2C[C@H]2C[C@H]4[C@@H](N(C)C)C(O)=C(C(N)=O)C(=O)[C@@]4(O)C(O)=C2C3=O)c1 [O] | > 135 | 64 (≈ 101 µM) | 4 (≈ 6.32 µM) | 4 (≈ 6.32 µM) | 64 (≈ 101 µM) | 64 (≈ 101 µM) | 64 (≈ 101 µM) | 64 (≈ 101 µM) | > 135 | >134.63 | >134.63 |
| COCCNC(=O)c1ccc(-c2ccc(O)c3c2C[C@H]2C[C@H]4[C@H](N(C)C)C(O)=C(C(N)=O)C(=O)[C@@]4(O)C(O)=C2C3=O)o1 [DF] | > 20 | 16 (≈ 27.5 µM) | 0.0625 (≈ 0.107 µM) | 0.06 (≈ 0.103 µM) | 64 (≈ 110 µM) | 32 (≈ 55 µM) | 16 (≈ 27.5 µM) | 64 (≈ 110 µM) | > 20 | >200 | >200 |
| CN1CCN(Cc2cccc(-c3ccc(O)c4c3C[C@H]3C[C@H]5[C@H](N(C)C)C(O)=C(C(N)=O)C(=O)[C@@]5(O)C(O)=C3C4=O)c2)CC1 [DK] | 92.3 | 4 (≈ 6.64 µM) | 0.0625 (≈ 0.104 µM) | 0.06 (≈ 0.0996 µM) | 2 (≈ 3.32 µM) | 4 (≈ 6.64 µM) | 1 (≈ 1.66 µM) | 64 (≈ 106 µM) | > 200 | >200 | >200 |
| CN(C)CCNC(=O)c1cccc(-c2ccc(O)c3c2C[C@H]2C[C@H]4[C@H](N(C)C)C(O)=C(C(N)=O)C(=O)[C@@]4(O)C(O)=C2C3=O)c1 [AB] | > 200 | 32 (≈ 52.9 µM) | 0.5 (≈ 0.827 µM) | 0.25 (≈ 0.413 µM) | 64 (≈ 106 µM) | 16 (≈ 26.5 µM) | 32 (≈ 52.9 µM) | 64 (≈ 106 µM) | > 200 | >200 | >200 |
| CN(C)CCNC(=O)c1ccc(O)c2c1C[C@H]1C[C@H]3[C@H](N(C)C)C(O)=C(C(N)=O)C(=O)[C@@]3(O)C(O)=C1C2=O [AH] | > 126 | 64 (≈ 121 µM) | 16 (≈ 30.3 µM) | 8 (≈ 15.1 µM) | 64 (≈ 121 µM) | 64 (≈ 121 µM) | 64 (≈ 121 µM) | 64 (≈ 121 µM) | > 126 | >125.56 | >125.56 |
| CN(C)[C@@H]1C(O)=C(C(N)=O)C(=O)[C@@]2(O)C(O)=C3C(=O)c4c(O)ccc(-c5coc(CN6CCCCC6)c5)c4C[C@H]3C[C@@H]12 [BF] | > 42.9 | 1 (≈ 1.73 µM) | 0.06 (≈ 0.104 µM) | 0.06 (≈ 0.104 µM) | 0.5 (≈ 0.866 µM) | 1 (≈ 1.73 µM) | 0.25 (≈ 0.433 µM) | 64 (≈ 111 µM) | > 42.9 | >138.34 | >138.34 |
| CN(C)CCCNCc1cccc(-c2ccc(O)c3c2C[C@H]2C[C@H]4[C@H](N(C)C)C(O)=C(C(N)=O)C(=O)[C@@]4(O)C(O)=C2C3=O)c1 [CX] | > 137 | 8 (≈ 13.2 µM) | 0.5 (≈ 0.827 µM) | 0.25 (≈ 0.413 µM) | 32 (≈ 52.9 µM) | 16 (≈ 26.5 µM) | 16 (≈ 26.5 µM) | 64 (≈ 106 µM) | > 137 | >137.23 | >137.23 |
| CN(C)CCCCNC(=O)c1cccc(-c2ccc(O)c3c2C[C@H]2C[C@H]4[C@H](N(C)C)C(O)=C(C(N)=O)C(=O)[C@@]4(O)C(O)=C2C3=O)c1 [CL] | > 41.7 | 64 (≈ 101 µM) | 4 (≈ 6.32 µM) | 4 (≈ 6.32 µM) | 64 (≈ 101 µM) | 64 (≈ 101 µM) | 64 (≈ 101 µM) | 64 (≈ 101 µM) | > 41.7 | >134.63 | >134.63 |
| CC(=O)NCCNC(=O)c1cccc(-c2ccc(O)c3c2C[C@H]2C[C@H]4[C@H](N(C)C)C(O)=C(C(N)=O)C(=O)[C@@]4(O)C(O)=C2C3=O)c1 [S] | > 13 | 32 (≈ 51.7 µM) | 2 (≈ 3.23 µM) | 2 (≈ 3.23 µM) | 64 (≈ 103 µM) | 64 (≈ 103 µM) | 64 (≈ 103 µM) | 64 (≈ 103 µM) | > 13 | >129.75 | >129.75 |
| CN(C)[C@@H]1C(O)=C(C(N)=O)C(=O)[C@@]2(O)C(O)=C3C(=O)c4c(O)ccc(C(=O)CNCc5cccn5C)c4C[C@H]3C[C@@H]12 [CE] | > 41.4 | 4 (≈ 7.08 µM) | 0.25 (≈ 0.443 µM) | 0.5 (≈ 0.886 µM) | 64 (≈ 113 µM) | 4 (≈ 7.08 µM) | 4 (≈ 7.08 µM) | 64 (≈ 113 µM) | > 41.4 | >133.53 | >133.53 |
| COCCCNC(=O)c1cccc(-c2ccc(O)c3c2CC2CC4[C@H](N(C)C)C(O)=C(C(N)=O)C(=O)[C@@]4(O)C(O)=C2C3=O)c1 (stereo partly drawn) [DD] | > 15.3 | 2 (≈ 3.3 µM) | 0.0625 (≈ 0.103 µM) | 0.06 (≈ 0.0991 µM) | 64 (≈ 106 µM) | 64 (≈ 106 µM) | 64 (≈ 106 µM) | 64 (≈ 106 µM) | > 15.3 | >152.62 | >152.62 |
| CN(C)CCN(C)Cc1ccc(-c2ccc(O)c3c2C[C@H]2C[C@H]4[C@H](N(C)C)C(O)=C(C(N)=O)C(=O)[C@@]4(O)C(O)=C2C3=O)o1 [CZ] | > 13.8 | 16 (≈ 26.9 µM) | 0.06 (≈ 0.101 µM) | 0.06 (≈ 0.101 µM) | 16 (≈ 26.9 µM) | 4 (≈ 6.73 µM) | 4 (≈ 6.73 µM) | 64 (≈ 108 µM) | > 13.8 | >137.77 | >137.77 |
| COC(C)CNCC(=O)c1ccc(O)c2c1C[C@H]1C[C@H]3[C@H](N(C)C)C(O)=C(C(N)=O)C(=O)[C@@]3(O)C(O)=C1C2=O (stereo partly drawn) [CA] | > 146 | 32 (≈ 58.9 µM) | 4 (≈ 7.36 µM) | 2 (≈ 3.68 µM) | 64 (≈ 118 µM) | 32 (≈ 58.9 µM) | 32 (≈ 58.9 µM) | 64 (≈ 118 µM) | > 146 | >145.98 | >145.98 |
| CN(CCC#N)Cc1cccc(-c2ccc(O)c3c2C[C@H]2C[C@H]4[C@H](N(C)C)C(O)=C(C(N)=O)C(=O)[C@@]4(O)C(O)=C2C3=O)c1 [BL] | > 13.6 | 2 (≈ 3.41 µM) | 0.06 (≈ 0.102 µM) | 0.06 (≈ 0.102 µM) | 16 (≈ 27.3 µM) | 16 (≈ 27.3 µM) | 4 (≈ 6.82 µM) | 64 (≈ 109 µM) | > 13.6 | >136.45 | >136.45 |
